Measured values reported in patent publication US6514967B1 (priority 1997, dated 2003).

Experiments:
[1] = molecular target: xanthine oxidase (Homo sapiens, UniProt P47989); test: Action of the derivatives on xanthine oxidase; format: biochemical
Experimental: Action of the derivatives on xanthine oxidase:
(Free Radical Biology & Medicine, Vol 20, No 1, pp.35-43, 1996)
[…] of xanthine 20 mM in soda 0.1N and […] of the test product in phosphate buffer at pH 7.4 were placed in a final volume of 2 ml. Reaction is started by adding […] of solution of xanthine oxidase at 0.56 U/ml. Formation of […] is monitored by UV spectroscopy at 290 nm. Allopurinol is a reference inhibitor.

[2] = tested on: astrocytes; test: Recapture of glutamate by cultures of astrocytes, radicals generated by xanthine/xanthine oxidase (X/XO); format: cell-based, rats
Experimental: B) Procedure with cultures of astrocytes and generation of radicals by the xanthine/xanthine oxidase (X/XO) pair
400 μl of D-lysine at 25 μg/ml (9 ml of D-lysine at 100 μg per ml of borate buffer (0.1M pH 8.4)+27 ml of water) is placed in each well of 24-well culture plates. The wells are left in the stove (5% CO2, 37° C.) over night. Each well is rinsed with 2 times 750 μl of Hanks before receiving the culture medium. 3 lateral demi cortices are taken from rats aged 1 to 2 days. (The hippocampus, the striatum and the meninges are removed). The demi cortices are placed in 2 ml of trypsin-EDTA then put in the stove for 30 min. The action of the trypsin is stopped with 10% of decomplemented foetal calf serum (200 μl). The serum and the trypsin are removed then the cells are dissociated with a pipette in 10 ml of medium (MEM 225 ml+FCS-D 25 ml+glucose 20% 7.5 ml) (MEM=minimum essential medium; FCS-D=decomplemented foetal calf serum). The culture medium is made up to 30 ml, stirred and placed at 400 μl per well. The medium is changed twice weekly for 18 days. The last replacement is effected 4 days prior to the treatment, with a medium without decomplemented foetal calf serum. (MEM 31.5 ml+glucose 20% 1.05 ml).
Treatment takes place on the 18th or 19th day.
Each well is washed with 750 μl of buffer (NaCl 124 mM, KCl 4.6 mM, CaCl2 1.2 mM, MgCl2 1.3 mM, KH2PO4 0.416 mM, NaHCO3 26.75 mM, glucose 10 mM; pH 7.4) for 10 min. The cells are incubated in the presence of xanthine (500 μM) and of the test product (from 0 to 1 mM). After 10 min, xanthine oxidase is added (50 mU/ml) and it is again left to incubate for 10 min. Release of radicals is stopped by washing 3 times with catalase (3000 U/ml). The glutamate is then recaptured in a solution of radioactive glutamate (^3H) at 40 μM (isotopic dilution 1/20000). Recapture is stopped by washing 3 times with the cold buffer. The cells are detached with soda 0.2N and the radioactivity is measured.
Firstly we checked that the inhibition of recapture observed in the presence of X/XO is indeed due to a radical process. For this we replaced the test products with two enzymes: SOD (SuperOxide Dismutase) and catalase (FIG. 1). […] The Fenton reaction converting hydrogen peroxide to OH• is thus short-circuited. […] However, as there seems to be sufficient reducing agent in the medium to promote the formation of H2O2 starting from O2^•^−, it appears likely that a substantial proportion of H2O2 gives OH• (a highly reactive radical).
FIGS. 3 to 8 are the mean of at least 4 independent tests in which the protective power of IC180, IC023, IC241, IC2-16, IC178, IC140, IC209, IC237, IC146, IC193, IC194, IC242, IC207, IC2-19, IC219, IC2-21, and IC249, as a function of the dose, was tested against a fixed concentration of radicals, and therefore of X/XO. In the case of IC180, the increase in recapture appears to be linear (up to 100% is found in some tests). […] Since IC023 alone only becomes “toxic” starting from 1 mM, the variation observed starting from 0.6 mM might reflect the existence of metabolites that are poorly tolerated by the cells. The derivative morpholine IC180 is more interesting.

xanthine oxidase, sequence (P47989 whole entry, species assumed): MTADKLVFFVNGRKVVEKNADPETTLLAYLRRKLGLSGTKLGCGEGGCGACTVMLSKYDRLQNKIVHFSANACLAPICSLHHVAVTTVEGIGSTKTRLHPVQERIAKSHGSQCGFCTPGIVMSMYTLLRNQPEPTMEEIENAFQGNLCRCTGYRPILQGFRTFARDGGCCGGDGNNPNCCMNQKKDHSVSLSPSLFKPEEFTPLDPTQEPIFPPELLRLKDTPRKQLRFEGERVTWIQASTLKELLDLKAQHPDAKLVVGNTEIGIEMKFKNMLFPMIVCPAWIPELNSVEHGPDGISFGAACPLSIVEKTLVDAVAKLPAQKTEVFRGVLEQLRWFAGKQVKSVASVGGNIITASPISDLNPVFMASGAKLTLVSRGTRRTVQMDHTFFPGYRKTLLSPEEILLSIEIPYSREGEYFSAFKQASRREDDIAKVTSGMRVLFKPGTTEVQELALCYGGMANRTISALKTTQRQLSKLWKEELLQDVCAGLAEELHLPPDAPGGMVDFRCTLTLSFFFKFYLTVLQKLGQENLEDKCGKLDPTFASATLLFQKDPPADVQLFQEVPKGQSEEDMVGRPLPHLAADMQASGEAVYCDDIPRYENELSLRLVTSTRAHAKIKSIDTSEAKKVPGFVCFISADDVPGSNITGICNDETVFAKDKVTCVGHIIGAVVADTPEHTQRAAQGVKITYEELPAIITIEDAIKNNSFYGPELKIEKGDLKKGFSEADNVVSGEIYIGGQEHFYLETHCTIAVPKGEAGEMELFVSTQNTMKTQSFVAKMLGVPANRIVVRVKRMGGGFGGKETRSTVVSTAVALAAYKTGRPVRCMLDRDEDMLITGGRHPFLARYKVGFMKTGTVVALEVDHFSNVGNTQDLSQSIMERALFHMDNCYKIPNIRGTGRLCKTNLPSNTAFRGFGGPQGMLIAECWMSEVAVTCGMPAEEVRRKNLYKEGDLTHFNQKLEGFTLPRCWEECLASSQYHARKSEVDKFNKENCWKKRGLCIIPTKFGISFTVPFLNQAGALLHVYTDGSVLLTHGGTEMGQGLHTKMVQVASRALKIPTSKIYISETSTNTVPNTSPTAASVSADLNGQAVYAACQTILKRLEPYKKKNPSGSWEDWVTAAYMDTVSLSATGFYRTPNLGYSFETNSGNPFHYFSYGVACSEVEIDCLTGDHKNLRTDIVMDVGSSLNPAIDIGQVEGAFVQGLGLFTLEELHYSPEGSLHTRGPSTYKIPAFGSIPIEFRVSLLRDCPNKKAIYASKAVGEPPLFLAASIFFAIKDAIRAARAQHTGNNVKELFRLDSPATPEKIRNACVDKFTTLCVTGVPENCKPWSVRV

With `c1cc2c(s1)CCCC2N1CCOCC1` (stereo not shown) [IC180, morpholine-4-tetrahydro-4,5,6,7-benzothiophene] as the molecule, how does the inhibition at 100 µM ([1]; read-out: % inhibition 100 μM) read?
Its inhibition at 100 µM is 0%.

And the inhibition at 500 µM ([1]; read-out: % inhibition 500 μM)?
Its inhibition at 500 µM is 2%.

What about the “increase in recapture of glutamate, highest found” value ([2]; fixed concentration of X/XO, dose-dependent, found in some tests) of the same molecule?
The value was “up to 100%”.

And the “effect of the product alone on recapture” value ([2]; without the presence of X/XO)?
The value was “no effect on recapture”.
